{
  "source": "ChEMBL document CHEMBL5465560",
  "about": "“Selectivity Literature for EUbOPEN Chemogenomic Library” (2024)",
  "key": {"[1]": {"molecular_target": "T1, Serine/threonine-protein kinase RIO1 (Homo sapiens) (UniProt Q9BRS2)", "T1 sequence (whole entry)": "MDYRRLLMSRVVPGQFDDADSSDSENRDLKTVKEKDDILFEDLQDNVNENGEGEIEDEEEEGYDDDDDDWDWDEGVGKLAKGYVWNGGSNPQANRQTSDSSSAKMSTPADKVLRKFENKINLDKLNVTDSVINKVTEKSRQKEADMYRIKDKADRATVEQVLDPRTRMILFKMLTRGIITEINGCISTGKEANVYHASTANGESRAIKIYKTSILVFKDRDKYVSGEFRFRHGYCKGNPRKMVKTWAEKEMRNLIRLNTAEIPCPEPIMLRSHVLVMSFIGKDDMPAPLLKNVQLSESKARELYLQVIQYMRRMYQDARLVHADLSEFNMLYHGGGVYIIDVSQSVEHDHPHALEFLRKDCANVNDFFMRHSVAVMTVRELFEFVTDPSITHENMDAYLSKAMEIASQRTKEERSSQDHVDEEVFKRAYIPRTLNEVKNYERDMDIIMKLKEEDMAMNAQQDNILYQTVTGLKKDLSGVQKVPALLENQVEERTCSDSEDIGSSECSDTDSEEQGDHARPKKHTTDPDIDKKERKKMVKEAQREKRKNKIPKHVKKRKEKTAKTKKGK", "assay": "Selectivity interaction (KinomeScan (DiscoverX)) EUB0000607a RIOK1", "conditions": "at 10 µM"}, "[2]": {"molecular_target": "Maternal embryonic leucine zipper kinase (Homo sapiens) (UniProt Q14680)", "sequence (Q14680 whole entry, looked up)": "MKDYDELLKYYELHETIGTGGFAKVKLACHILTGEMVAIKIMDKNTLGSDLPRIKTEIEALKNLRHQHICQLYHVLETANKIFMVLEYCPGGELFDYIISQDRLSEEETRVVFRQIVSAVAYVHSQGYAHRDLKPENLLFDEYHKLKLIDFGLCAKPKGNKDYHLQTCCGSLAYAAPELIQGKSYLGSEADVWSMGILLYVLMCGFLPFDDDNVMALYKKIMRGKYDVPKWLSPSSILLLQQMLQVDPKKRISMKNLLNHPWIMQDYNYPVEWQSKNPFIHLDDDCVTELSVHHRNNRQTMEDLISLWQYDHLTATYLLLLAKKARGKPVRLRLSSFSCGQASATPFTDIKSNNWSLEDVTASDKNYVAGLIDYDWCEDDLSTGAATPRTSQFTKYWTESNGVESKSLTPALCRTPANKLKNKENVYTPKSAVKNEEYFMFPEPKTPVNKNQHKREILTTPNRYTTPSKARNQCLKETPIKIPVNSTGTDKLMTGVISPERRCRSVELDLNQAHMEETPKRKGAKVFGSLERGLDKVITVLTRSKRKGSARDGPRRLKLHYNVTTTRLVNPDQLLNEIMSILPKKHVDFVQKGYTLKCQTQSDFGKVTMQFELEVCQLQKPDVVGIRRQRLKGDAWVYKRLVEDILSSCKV", "conditions": "at 10 µM"}, "[3]": {"molecular_target": "Serine/threonine-protein kinase Chk2 (Homo sapiens) (UniProt O96017)", "sequence (O96017 whole entry)": "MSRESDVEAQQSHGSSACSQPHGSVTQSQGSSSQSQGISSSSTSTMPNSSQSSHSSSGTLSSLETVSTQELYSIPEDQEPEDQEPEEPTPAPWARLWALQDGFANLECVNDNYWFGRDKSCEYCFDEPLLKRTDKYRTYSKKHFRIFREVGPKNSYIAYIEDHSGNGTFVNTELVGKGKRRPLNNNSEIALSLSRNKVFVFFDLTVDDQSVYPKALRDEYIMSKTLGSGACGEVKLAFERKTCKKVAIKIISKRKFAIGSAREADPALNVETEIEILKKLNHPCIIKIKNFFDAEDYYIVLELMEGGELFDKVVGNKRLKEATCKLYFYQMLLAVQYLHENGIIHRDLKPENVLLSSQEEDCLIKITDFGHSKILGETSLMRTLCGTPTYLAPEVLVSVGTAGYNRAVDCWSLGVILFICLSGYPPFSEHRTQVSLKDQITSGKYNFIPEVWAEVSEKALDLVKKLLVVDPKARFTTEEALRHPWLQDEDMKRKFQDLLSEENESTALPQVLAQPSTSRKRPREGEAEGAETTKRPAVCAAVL", "assay": "Selectivity interaction (ActivX KiNativ screen (kinase selectivity in THP-1 cell lysates)) EUB0000639a CHEK2", "type": "subcellular", "conditions": "lysate"}, "[4]": {"molecular_target": "Casein kinase I isoform alpha (Homo sapiens, UniProt P48729)", "sequence (P48729 2-337 limits assumed)": "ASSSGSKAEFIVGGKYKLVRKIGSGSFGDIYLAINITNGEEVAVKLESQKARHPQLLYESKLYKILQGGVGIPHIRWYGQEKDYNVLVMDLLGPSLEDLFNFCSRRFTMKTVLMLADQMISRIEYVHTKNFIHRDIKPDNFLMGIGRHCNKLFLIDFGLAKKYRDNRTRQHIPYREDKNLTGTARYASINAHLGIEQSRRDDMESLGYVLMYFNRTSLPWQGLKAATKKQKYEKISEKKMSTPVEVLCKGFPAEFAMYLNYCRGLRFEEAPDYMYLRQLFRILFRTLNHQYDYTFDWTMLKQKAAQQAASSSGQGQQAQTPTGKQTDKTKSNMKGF", "assay": "Selectivity interaction (ProQinase) EUB0000171b CSNK1A1"}, "[5]": {"molecular_target": "T2, Serine/threonine-protein kinase ULK1 (Homo sapiens) (UniProt O75385)", "T2 sequence (whole entry)": "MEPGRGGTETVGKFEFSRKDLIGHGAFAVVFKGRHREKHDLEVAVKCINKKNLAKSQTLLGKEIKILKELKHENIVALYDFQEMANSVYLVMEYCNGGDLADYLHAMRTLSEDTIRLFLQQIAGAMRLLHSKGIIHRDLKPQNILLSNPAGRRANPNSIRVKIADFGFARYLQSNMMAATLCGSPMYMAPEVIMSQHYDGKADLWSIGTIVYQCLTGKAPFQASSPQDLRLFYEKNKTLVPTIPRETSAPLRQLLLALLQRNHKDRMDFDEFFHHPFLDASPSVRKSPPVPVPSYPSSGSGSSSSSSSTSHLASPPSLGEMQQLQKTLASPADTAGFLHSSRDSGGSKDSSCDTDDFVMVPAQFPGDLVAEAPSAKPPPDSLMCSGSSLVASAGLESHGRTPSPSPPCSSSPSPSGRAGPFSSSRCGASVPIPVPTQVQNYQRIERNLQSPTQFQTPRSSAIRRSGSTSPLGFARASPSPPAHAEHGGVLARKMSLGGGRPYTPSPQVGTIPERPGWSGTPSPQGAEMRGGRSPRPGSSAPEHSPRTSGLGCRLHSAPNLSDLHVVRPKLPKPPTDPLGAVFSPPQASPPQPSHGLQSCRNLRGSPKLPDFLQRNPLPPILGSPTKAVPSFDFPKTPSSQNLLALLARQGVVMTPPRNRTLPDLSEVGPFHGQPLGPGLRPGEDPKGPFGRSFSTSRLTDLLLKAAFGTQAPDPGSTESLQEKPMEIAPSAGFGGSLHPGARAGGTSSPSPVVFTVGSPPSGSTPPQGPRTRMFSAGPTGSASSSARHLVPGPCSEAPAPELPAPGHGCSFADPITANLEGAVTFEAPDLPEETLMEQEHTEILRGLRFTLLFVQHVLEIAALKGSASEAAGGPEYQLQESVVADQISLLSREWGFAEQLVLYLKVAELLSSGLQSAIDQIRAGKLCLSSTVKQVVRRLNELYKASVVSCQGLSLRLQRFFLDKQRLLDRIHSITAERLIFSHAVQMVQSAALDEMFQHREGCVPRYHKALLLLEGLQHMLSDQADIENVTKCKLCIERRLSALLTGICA", "assay": "Selectivity interaction (KinomeScan (DiscoverX)) EUB0000695a ULK1", "conditions": "at 100 nM"}, "[6]": {"molecular_target": "Serine/threonine-protein kinase PAK 2 (Homo sapiens) (UniProt Q13177)", "sequence (Q13177 whole entry)": "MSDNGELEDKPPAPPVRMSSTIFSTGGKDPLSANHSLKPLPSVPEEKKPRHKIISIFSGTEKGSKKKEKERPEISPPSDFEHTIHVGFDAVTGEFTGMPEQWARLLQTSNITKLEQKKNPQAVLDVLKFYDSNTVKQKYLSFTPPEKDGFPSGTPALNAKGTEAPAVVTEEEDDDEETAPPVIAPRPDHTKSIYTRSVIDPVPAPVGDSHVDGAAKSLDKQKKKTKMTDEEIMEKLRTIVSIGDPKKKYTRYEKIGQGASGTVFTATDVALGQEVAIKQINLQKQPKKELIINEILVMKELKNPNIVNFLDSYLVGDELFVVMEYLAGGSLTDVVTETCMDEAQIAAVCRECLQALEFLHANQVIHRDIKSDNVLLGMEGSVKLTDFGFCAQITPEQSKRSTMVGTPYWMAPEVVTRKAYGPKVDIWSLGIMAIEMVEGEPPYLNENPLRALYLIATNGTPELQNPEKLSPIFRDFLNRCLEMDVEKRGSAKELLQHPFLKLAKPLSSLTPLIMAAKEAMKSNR", "assay": "Selectivity interaction (KinomeScan (DiscoverX)) EUB0000695a PAK2", "conditions": "at 100 nM"}, "[7]": {"molecular_target": "T3, Dual specificity protein kinase TTK (Homo sapiens) (UniProt P33981)", "T3 sequence (whole entry)": "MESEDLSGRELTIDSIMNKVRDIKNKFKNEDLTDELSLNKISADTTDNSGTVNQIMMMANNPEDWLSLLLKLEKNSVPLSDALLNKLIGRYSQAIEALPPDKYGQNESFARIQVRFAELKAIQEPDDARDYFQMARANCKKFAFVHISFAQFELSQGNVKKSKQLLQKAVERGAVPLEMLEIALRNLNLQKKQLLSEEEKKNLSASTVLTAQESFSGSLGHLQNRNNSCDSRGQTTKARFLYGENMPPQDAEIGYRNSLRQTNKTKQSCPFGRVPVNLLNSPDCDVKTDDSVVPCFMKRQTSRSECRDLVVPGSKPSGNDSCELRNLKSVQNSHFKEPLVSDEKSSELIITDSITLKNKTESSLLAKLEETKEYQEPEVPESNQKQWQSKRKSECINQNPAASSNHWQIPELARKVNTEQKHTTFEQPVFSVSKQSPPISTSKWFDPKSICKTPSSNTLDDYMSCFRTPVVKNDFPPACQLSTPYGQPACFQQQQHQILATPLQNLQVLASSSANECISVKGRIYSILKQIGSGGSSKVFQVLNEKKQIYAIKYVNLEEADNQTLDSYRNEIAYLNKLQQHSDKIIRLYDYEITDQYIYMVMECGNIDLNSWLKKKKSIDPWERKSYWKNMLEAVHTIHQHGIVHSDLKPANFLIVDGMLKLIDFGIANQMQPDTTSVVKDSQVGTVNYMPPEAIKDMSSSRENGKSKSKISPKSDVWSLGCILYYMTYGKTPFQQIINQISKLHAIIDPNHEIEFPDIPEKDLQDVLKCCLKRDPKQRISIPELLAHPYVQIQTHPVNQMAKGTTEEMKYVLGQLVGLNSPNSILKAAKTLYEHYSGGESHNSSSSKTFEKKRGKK", "assay": "Selectivity interaction (KinomeScan (DiscoverX)) EUB0000045b TTK"}, "[8]": {"molecular_target": "Sodium-dependent noradrenaline transporter (Homo sapiens, UniProt P23975)", "sequence (P23975 whole entry)": "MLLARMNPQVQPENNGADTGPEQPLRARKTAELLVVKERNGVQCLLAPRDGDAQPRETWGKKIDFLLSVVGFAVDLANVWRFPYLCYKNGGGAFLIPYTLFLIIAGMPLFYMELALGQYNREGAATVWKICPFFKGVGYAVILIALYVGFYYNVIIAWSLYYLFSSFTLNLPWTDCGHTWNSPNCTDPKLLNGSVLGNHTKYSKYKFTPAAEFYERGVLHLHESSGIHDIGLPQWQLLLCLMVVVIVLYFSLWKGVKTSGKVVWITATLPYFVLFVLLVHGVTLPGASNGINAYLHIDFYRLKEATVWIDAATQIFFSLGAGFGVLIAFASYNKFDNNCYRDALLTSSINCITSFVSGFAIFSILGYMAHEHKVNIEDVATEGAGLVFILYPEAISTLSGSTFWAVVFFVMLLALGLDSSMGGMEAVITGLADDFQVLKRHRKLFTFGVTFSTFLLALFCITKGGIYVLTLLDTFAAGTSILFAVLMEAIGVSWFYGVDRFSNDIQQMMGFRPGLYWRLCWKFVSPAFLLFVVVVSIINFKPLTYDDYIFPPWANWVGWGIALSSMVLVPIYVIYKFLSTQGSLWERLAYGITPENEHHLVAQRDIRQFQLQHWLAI", "assay": "Selectivity interaction (GPCR panel (PDSP screen)) EUB0001079a SLC6A2", "conditions": "at 10 µM"}, "[9]": {"molecular_target": "Epithelial discoidin domain-containing receptor 1 (Homo sapiens) (UniProt Q08345)", "sequence (Q08345 whole entry, the tested form may be a part)": "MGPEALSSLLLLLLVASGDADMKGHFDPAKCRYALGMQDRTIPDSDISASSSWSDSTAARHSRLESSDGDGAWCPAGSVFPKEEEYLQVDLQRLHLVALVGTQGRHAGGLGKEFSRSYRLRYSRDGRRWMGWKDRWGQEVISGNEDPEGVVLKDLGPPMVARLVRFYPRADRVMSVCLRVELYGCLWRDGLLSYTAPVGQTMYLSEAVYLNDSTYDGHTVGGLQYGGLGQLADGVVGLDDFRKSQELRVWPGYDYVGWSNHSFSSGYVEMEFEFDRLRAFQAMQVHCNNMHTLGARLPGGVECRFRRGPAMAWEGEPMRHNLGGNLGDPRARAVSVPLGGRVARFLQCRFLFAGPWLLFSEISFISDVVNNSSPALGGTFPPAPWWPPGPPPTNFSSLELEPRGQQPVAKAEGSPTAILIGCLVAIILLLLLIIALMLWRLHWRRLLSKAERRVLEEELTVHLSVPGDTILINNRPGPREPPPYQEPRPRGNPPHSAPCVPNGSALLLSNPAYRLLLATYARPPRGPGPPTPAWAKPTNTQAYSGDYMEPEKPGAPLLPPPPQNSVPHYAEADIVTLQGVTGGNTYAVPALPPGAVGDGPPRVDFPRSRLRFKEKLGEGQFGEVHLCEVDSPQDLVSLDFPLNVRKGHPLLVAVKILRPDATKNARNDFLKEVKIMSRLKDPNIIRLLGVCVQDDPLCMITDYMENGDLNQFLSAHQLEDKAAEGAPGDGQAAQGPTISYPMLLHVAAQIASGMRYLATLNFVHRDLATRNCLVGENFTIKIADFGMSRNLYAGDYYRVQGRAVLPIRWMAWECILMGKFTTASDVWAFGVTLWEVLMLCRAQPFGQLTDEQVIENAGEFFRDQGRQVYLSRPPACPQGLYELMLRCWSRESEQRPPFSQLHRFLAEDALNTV", "conditions": "at 10 µM"}},
  "data": [
    {"smiles": "CNC(=O)Nc1ccc(-c2nc(N3CC4CCC(C3)O4)c3cnn(C4CCC5(CC4)OCCO5)c3n2)cc1", "values": [
      {"measurement": "% of control", "setting": "[1]", "value": 91, "unit": "%"}
    ]},
    {"smiles": "CCN(CC)CCCCNc1ncc2cc(-c3cc(OC)cc(OC)c3)c(NC(=O)NC(C)(C)C)nc2n1", "values": [
      {"measurement": "% of control", "setting": "[2]", "value": 100, "unit": "%"}
    ]},
    {"smiles": "CC[C@@H]1[C@H](F)C(=O)N[C@@H]1COc1nccc2cc(C(N)=O)c(OC)cc12", "note": "[ZIMLOVISERTIB]", "values": [
      {"measurement": "% of inhibition", "setting": "[3]; at 0.01 µM", "value": 4.5, "unit": "%"},
      {"measurement": "% of inhibition", "setting": "[3]; at 0.04 µM", "value": 8.5, "unit": "%"},
      {"measurement": "% of inhibition", "setting": "[3]; at 0.2 µM", "value": 3.8, "unit": "%"},
      {"measurement": "% of inhibition", "setting": "[3]; at 1 µM", "value": 30.1, "unit": "%"},
      {"measurement": "% of inhibition", "setting": "[3]; at 5 µM", "value": 58.9, "unit": "%"}
    ]},
    {"smiles": "C=CC(=O)Nc1cccc(C(=O)Nc2ccc(Nc3cc(-c4[nH]c(SC)nc4C)ccn3)cc2)c1", "values": [
      {"measurement": "% of control", "setting": "[4]; at 1 µM", "value": 70, "unit": "%"},
      {"measurement": "% of control", "setting": "[4]; at 5 µM", "value": 38, "unit": "%"}
    ]},
    {"smiles": "Cc1cc(F)c(C(=O)Nc2cccc(-c3nncn3C(C)C)n2)cc1-n1cnc(C2CC2)c1", "values": [
      {"measurement": "% of control", "setting": "[5]", "value": 100, "unit": "%"},
      {"measurement": "% of control", "setting": "[6]", "value": 100, "unit": "%"}
    ]},
    {"smiles": "C=CC(=O)Nc1cc(-n2c(=O)ccc3cnc4ccc(-c5ccc(NS(C)(=O)=O)cc5)cc4c32)ccc1C", "values": [
      {"measurement": "% of control", "setting": "[7]; at 1 µM", "value": 100, "unit": "%"},
      {"measurement": "% of control", "setting": "[7]; at 10 µM", "value": 52, "unit": "%"}
    ]},
    {"smiles": "Nc1cnc(N2CCc3cc(S(=O)(=O)Nc4c(F)cc(Cl)cc4F)cc(N4CCCC4=O)c32)nc1", "note": "[TP-020n]", "values": [
      {"measurement": "% of inhibition", "setting": "[8]", "value": 18.2, "unit": "%"}
    ]},
    {"smiles": "Cc1cc([C@@H](C)Nc2ccccc2C(=O)O)c2nc(N3CCOCC3)cc(=O)n2c1", "note": "[AZD-6482]", "values": [
      {"measurement": "% of control", "setting": "[9]", "value": 100, "unit": "%"}
    ]}
  ]
}
